Molecular target: T1, L-amino-acid oxidase (Homo sapiens, UniProt Q96RQ9)
T1 sequence (Q96RQ9 whole entry): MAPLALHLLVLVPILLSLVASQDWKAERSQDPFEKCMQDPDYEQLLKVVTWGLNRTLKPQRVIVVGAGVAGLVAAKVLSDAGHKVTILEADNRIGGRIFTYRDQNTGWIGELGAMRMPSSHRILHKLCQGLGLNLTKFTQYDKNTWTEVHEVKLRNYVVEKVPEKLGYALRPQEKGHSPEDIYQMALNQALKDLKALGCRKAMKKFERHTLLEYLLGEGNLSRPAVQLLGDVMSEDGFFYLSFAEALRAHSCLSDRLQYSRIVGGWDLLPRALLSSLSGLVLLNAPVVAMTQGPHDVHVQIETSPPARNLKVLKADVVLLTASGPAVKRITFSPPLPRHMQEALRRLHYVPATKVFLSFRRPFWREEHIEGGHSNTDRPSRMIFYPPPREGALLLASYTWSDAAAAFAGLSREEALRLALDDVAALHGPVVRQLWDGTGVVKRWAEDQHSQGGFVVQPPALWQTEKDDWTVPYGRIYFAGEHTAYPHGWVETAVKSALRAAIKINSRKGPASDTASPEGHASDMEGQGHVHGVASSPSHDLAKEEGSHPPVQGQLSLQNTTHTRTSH
Assay: IL4I1 Enzymatic Assay
Description: Using this assay, the potency (EC50) of each compound was determined from a ten-point (1:3 serial dilution) titration curve using the following outlined procedure. To each well of a black flat-bottom Greiner (Cat #781076) 384 well-plate, 25 nL of compound (0.1% DMSO in final assay volume of 25 μL) was dispensed, followed by the addition of 12.5 μL of 1× assay buffer (50 mM Hepes 7.0 and 0.005% Tween20 (Sigma, Cat #P8341; low peroxide grade)) containing 2 nM of recombinant IL4I1 (R&D Systems, Cat #5684-AO-020). Plates were placed in an ambient temperature humidified chamber for a four-hour pre-incubation with compound. Subsequently, each reaction was initiated by the addition of 12.5 μL 1× assay buffer containing 2 mM of each aromatic amino acids (Phe/Tyr/Trp), 0.1 mM Amplex Red and 2 U/mL of HRP. The final reaction in each well of 25 μL consisted of 1 nM of IL4I1, 1 mM of each residues (Phe, Tyr and Trp), 0.05 mM Amplex Red and 1 U/mL of HRP. It should be noted that the concentrations of Amplex Red and HRP used here were in excess such that the conversion of H2O2 to resorufin product occurred

EC50: 6 nM
Structure (SMILES): CC1CC(N2CCN(Cc3nnc(-c4ccccc4)s3)C(=O)C2=O)C1 (stereo unspecified) [US20240246937, Example 289]
